The text below walks through data of patent US8426420B2, “Heterocyclic pyrazole-carboxamidesas P2Y12 antagonists” (Sanofi, priority 2007, dated 2013).

One assay concerns the target human P2Y12 receptor (Homo sapiens, UniProt Q9H244). Nature of the assay: Human P2Y12 recombinant cell membrane binding assay with 33P 2MeS-ADP. As to conditions: competition against 33P 2MeS-ADP, membranes of CHO cells with recombinant human P2Y12 receptor. Put shortly:
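CHO membranes expressing human P2Y12 (20 μg/ml stock) preincubated 15 min at RT with compound in HEPES pH 7.4 buffer, then 33P 2MeS-ADP (1.61 nM working solution) added for 20 min at RT. Bound label filtered and counted; four-point, five-fold series from 10 μM final, triplicate, four-parameter fit.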

The test system of assay [1] is human platelet rich plasma. Nature of the assay: Inhibition of human platelet aggregation, 96-well assay. Format: cell-based. Put shortly:
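ADP-induced aggregation read as 650 nm absorbance every minute for 20 min at 37 °C, with shaking between reads. PRP (~3×E8 platelets/ml, diluted with PPP, ACD-A blood from healthy volunteers) was exposed to compound for 5 min before adding a 40 μM ADP stock (15 μl into 150 μl).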

human P2Y12 receptor, sequence (Q9H244 whole entry): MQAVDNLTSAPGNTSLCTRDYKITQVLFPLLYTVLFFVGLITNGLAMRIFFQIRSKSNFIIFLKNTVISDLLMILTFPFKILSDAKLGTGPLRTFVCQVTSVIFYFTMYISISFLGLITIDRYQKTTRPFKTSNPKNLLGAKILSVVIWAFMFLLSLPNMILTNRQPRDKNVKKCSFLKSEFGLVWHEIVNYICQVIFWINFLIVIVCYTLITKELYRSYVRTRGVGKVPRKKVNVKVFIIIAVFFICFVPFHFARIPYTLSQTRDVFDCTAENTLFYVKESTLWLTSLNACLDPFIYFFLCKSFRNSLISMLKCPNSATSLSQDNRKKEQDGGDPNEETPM

The term IC50 denotes the concentration at which inhibition is half-maximal. With `CCOC(=O)N1CCN(C(=O)[C@H](CCC(=O)O)NC(=O)c2cc(OCC(=O)N3CCC[C@H]3C(=O)N3CCCCC3)n(-c3ccccc3)n2)CC1` [Example 18, 4-{(S)-4-Carboxy-2-[(5-{2-oxo-2-[(S)-2-(piperidine-1-carbonyl)-pyrrolidin-1-yl]-ethoxy}-1-phenyl-1H-pyrazole-3-carbonyl)-amino]-butyryl}-piperazine-1-carboxylic acid ethyl ester], the IC50 came to 146 nM on human P2Y12 receptor and 70 nM in assay [1] (Homo sapiens, Platelet, 20 min).
As for `CCOC(=O)N1CCN(C(=O)[C@H](CCC(=O)O)NC(=O)c2cc(OCC(=O)N3CCC[C@H]3C(=O)NC3CC3(F)F)n(-c3ccccc3)n2)CC1` (stereo partly drawn) [Example 21, 4-{(S)-4-Carboxy-2-[(5-{2-[(S)-2-(2,2-difluoro-cyclopropylcarbamoyl)-pyrrolidin-1-yl]-2-oxo-ethoxy}-1-phenyl-1H-pyrazole-3-carbonyl)-amino]-butyryl}-piperazine-1-carboxylic acid ethyl ester], the half-maximal inhibitory concentration (IC50) at human P2Y12 receptor amounted to 32 nM; in assay [1] (Homo sapiens, Platelet, 20 min), 62 nM.
Consider `CCOC(=O)N1CCN(C(=O)[C@H](CCC(=O)O)NC(=O)c2cc(OCC(=O)N3CC[C@H]3C(=O)NC3CCC3)n(-c3ccccc3)n2)CC1` [Example 41, 4-[(S)-4-Carboxy-2-({5-[2-((S)-2-cyclobutylcarbamoyl-azetidin-1-yl)-2-oxo-ethoxy]-1-phenyl-1H-pyrazole-3-carbonyl}-amino)-butyryl]-piperazine-1-carboxylic acid ethyl ester], for which the IC50 was determined as 109 nM at human P2Y12 receptor and 80 nM in assay [1] (Homo sapiens, Platelet, 20 min).
The matching figures for `CCOC(=O)N1CCN(C(=O)[C@H](CC(=O)O)NC(=O)c2cc(OCC(=O)N3CCC[C@H]3C(=O)NCC(F)(F)F)n(-c3ccccc3)n2)CC1` [Example 58, 4-{(S)-3-Carboxy-2-[(5-{2-[(S)-2-(2,2,2-trifluoro-ethylcarbamoyl)-pyrrolidin-1-yl]-2-oxo-ethoxy}-1-phenyl-1H-pyrazole-3-carbonyl)-amino]-propionyl}-piperazine-1-carboxylic acid ethyl ester]: 96 nM and 60 nM.
Consider `CCOC(=O)N1CCN(C(=O)[C@H](CCC(=O)O)NC(=O)c2cc(OCC(=O)N3CCC[C@H]3C(=O)NC3CC3)n(-c3cccc(F)c3)n2)CC1` [Example 71, 4-((S)-4-Carboxy-2-{[5-[2-((S)-2-cyclopropylcarbamoyl-pyrrolidin-1-yl)-2-oxo-ethoxy]-1-(3-fluoro-phenyl)-1H-pyrazole-3-carbonyl]-amino}-butyryl)-piperazine-1-carboxylic acid ethyl ester], for which the IC50 on human P2Y12 receptor turned out to be 192 nM; in assay [1] (Homo sapiens, Platelet, 20 min), 710 nM.
Regarding `CCOC(=O)N1CCN(C(=O)[C@H](CCC(=O)O)NC(=O)c2cc(OCC(=O)N3CCC[C@H]3C(=O)NCC3CC3)n(-c3cccc(F)c3)n2)CC1` [Example 74, 4-((S)-4-Carboxy-2-{[5-[2-((S)-2-cyclopropylmethylcarbamoyl-pyrrolidin-1-yl)-2-oxo-ethoxy]-1-(3-fluoro-phenyl)-1H-pyrazole-3-carbonyl]-amino}-butyryl)-piperazine-1-carboxylic acid ethyl ester], the 50% inhibitory concentration (IC50) worked out at 182 nM on human P2Y12 receptor and 260 nM in assay [1] (Homo sapiens, Platelet, 20 min).
`CCOC(=O)N1CCN(C(=O)[C@H](CCC(=O)O)NC(=O)c2cc(OCC(=O)N3CCC[C@H]3C(=O)NCC(F)F)n(-c3cccc(F)c3)n2)CC1` [Example 76, 4-((S)-4-Carboxy-2-{[5-[2-((S)-2-(2,2-difluoroethylcarbamoyl)-pyrrolidin-1-yl)-2-oxo-ethoxy]-1-(3-fluoro-phenyl)-1H-pyrazole-3-carbonyl]-amino}-butyryl)-piperazine-1-carboxylic acid ethyl ester]: the IC50 at human P2Y12 receptor came to 28 nM; in assay [1] (Homo sapiens, Platelet, 20 min), 170 nM.
As for `CCOC(=O)N1CCN(C(=O)[C@H](CC(=O)O)NC(=O)c2cc(OCC(=O)N3CCC[C@H]3C(=O)NCC3CC3)n(-c3cccc(F)c3)n2)CC1` [Example 77, 4-((S)-3-Carboxy-2-{[5-[2-((S)-2-cyclopropylmethyl-carbamoyl-pyrrolidin-1-yl)-2-oxo-ethoxy]-1-(3-fluoro-phenyl)-1H-pyrazole-3-carbonyl]-amino}-propionyl)-piperazine-1-carboxylic acid ethyl ester], the IC50 on human P2Y12 receptor is 28 nM; in assay [1] (ADP-induced aggregation, human platelet rich plasma, 96-well plates, AUC of absorbance over 20 minutes), 160 nM.
In the case of `CCOC(=O)N1CCN(C(=O)[C@H](CCC(=O)O)NC(=O)c2cc(OCC(=O)N3CCC[C@H]3C(=O)NC3CCC3)n(-c3ccc(F)c(F)c3)n2)CC1` [Example 83, 4-((S)-4-Carboxy-2-{[5-[2-((S)-2-cyclobutylcarbamoyl-pyrrolidin-1-yl)-2-oxo-ethoxy]-1-(3,4-difluoro-phenyl)-1H-pyrazole-3-carbonyl]-amino}-butyryl)-piperazine-1-carboxylic acid ethyl ester], the IC50 at human P2Y12 receptor came to 31 nM; in assay [1] (Homo sapiens, Platelet, 20 min), 120 nM.
As for `CCOC(=O)N1CCN(C(=O)[C@H](CCC(=O)O)NC(=O)c2cc(OCC(=O)N3CCC[C@H]3C(=O)NCC3CC3)n(-c3ccc(F)c(F)c3)n2)CC1` [Example 84, 4-((S)-4-Carboxy-2-{[5-[2-((S)-2-cyclopropylmethylcarbamoyl-pyrrolidin-1-yl)-2-oxo-ethoxy]-1-(3,4-difluoro-phenyl)-1H-pyrazole-3-carbonyl]-amino}-butyryl)-piperazine-1-carboxylic acid ethyl ester], the IC50 on human P2Y12 receptor turned out to be 92 nM; in assay [1] (Homo sapiens, Platelet, 20 min), 550 nM.
With `CCOC(=O)N1CCN(C(=O)[C@H](CNC(C)=O)NC(=O)c2cc(OCC(=O)N3CCC[C@H]3C(=O)NC3CCC3)n(-c3ccccc3)n2)CC1` [Example 87, 4-[(S)-3-Acetylamino-2-({5-[2-((S)-2-cyclobutylcarbamoyl-pyrrolidin-1-yl)-2-oxo-ethoxy]-1-phenyl-1H-pyrazole-3-carbonyl}-amino)-propionyl]-piperazine-1-carboxylic acid ethyl ester], the IC50 on human P2Y12 receptor worked out at 184 nM; in assay [1] (Homo sapiens, Platelet, 20 min) it was 1130 nM.
The matching figures for `CCOC(=O)N1CCN(C(=O)[C@H](CCNC(C)=O)NC(=O)c2cc(OCC(=O)N3CCC[C@H]3C(=O)NC3CCC3)n(-c3ccccc3)n2)CC1` [Example 92, 4-[(S)-4-Acetylamino-2-({5-[2-((S)-2-cyclobutylcarbamoyl-pyrrolidin-1-yl)-2-oxo-ethoxy]-1-phenyl-1H-pyrazole-3-carbonyl}-amino)-butyryl]-piperazine-1-carboxylic acid ethyl ester]: 109 nM and 1130 nM.
Consider `CCOC(=O)N1CCN(C(=O)[C@H](CCNC(=O)OC)NC(=O)c2cc(OCC(=O)N3CCC[C@H]3C(=O)NC3CCC3)n(-c3ccccc3)n2)CC1` [Example 93, 4-[(S)-2-({5-[2-((S)-2-Cyclobutylcarbamoyl-pyrrolidin-1-yl)-2-oxo-ethoxy]-1-phenyl-1H-pyrazole-3-carbonyl}-amino)-4-methoxycarbonylamino-butyryl]-piperazine-1-carboxylic acid ethyl ester], for which the IC50 at human P2Y12 receptor is 108 nM; in assay [1] (Homo sapiens, Platelet, 20 min) it was 590 nM.
For the compound `CCOC(=O)N1CCN(C(=O)[C@H](CCNC(=O)C2CC2)NC(=O)c2cc(OCC(=O)N3CCC[C@H]3C(=O)NC3CCC3)n(-c3ccccc3)n2)CC1` [Example 95, 4-[(S)-2-({5-[2-((S)-2-Cyclobutylcarbamoyl-pyrrolidin-1-yl)-2-oxo-ethoxy]-1-phenyl-1H-pyrazole-3-carbonyl}-amino)-4-(cyclopropanecarbonyl-amino)-butyryl]-piperazine-1-carboxylic acid ethyl ester], the IC50 on human P2Y12 receptor is 76 nM; in assay [1] (Homo sapiens, Platelet, 20 min), 260 nM.
As to `CCOC(=O)C(=O)NCC[C@H](NC(=O)c1cc(OCC(=O)N2CCC[C@H]2C(=O)NC2CCC2)n(-c2ccccc2)n1)C(=O)N1CCN(C(=O)OCC)CC1` [Example 96, 4-[(S)-2-({5-[2-((S)-2-Cyclobutylcarbamoyl-pyrrolidin-1-yl)-2-oxo-ethoxy]-1-phenyl-1H-pyrazole-3-carbonyl}-amino)-4-(ethoxyoxalyl-amino)-butyryl]-piperazine-1-carboxylic acid ethyl ester], the IC50 came out at 108 nM on human P2Y12 receptor and 670 nM in assay [1] (Homo sapiens, Platelet, 20 min).
In the case of `COc1cccc(N2CCN(C(=O)[C@H](CCC(=O)O)NC(=O)c3cc(OCC(=O)N4CCC[C@H]4C(=O)NC4CCC4)n(-c4ccccc4)n3)CC2)c1` [Example 101, (S)-4-({5-[2-((S)-2-Cyclobutylcarbamoyl-pyrrolidin-1-yl)-2-oxo-ethoxy]-1-phenyl-1H-pyrazole-3-carbonyl}-amino)-5-[4-(3-methoxy-phenyl)-piperazin-1-yl]-5-oxo-pentanoic acid], the IC50 on human P2Y12 receptor came to 77 nM; in assay [1] (Homo sapiens, Platelet, 20 min), 790 nM.
The matching figures for `O=C(O)CC[C@H](NC(=O)c1cc(OCC(=O)N2CCC[C@H]2C(=O)NC2CCC2)n(-c2ccccc2)n1)C(=O)N1CCC(C(=O)c2ccccc2)CC1` [Example 106, (S)-5-(4-Benzoyl-piperidin-1-yl)-4-({5-[2-((S)-2-cyclobutylcarbamoyl-pyrrolidin-1-yl)-2-oxo-ethoxy]-1-phenyl-1H-pyrazole-3-carbonyl}-amino)-5-oxo-pentanoic acid]: 104 nM and 1330 nM.
For the compound `CCOC(=O)CC[C@H](NC(=O)c1cc(OCC(=O)N2CCC[C@H]2C(=O)NC2CCC2)n(-c2ccccc2)n1)C(=O)N1CCN(C(=O)OCC)CC1` [Example 127, 4-[(S)-2-({5-[2-((S)-2-Cyclobutylcarbamoyl-pyrrolidin-1-yl)-2-oxo-ethoxy]-1-phenyl-1H-pyrazole-3-carbonyl}-amino)-4-ethoxycarbonyl-butyryl]-piperazine-1-carboxylic acid ethyl ester], the concentration for half-maximal inhibition (IC50) on human P2Y12 receptor came to 37 nM; in assay [1] (Homo sapiens, Platelet, 20 min) it was 440 nM.
